{
  "source": "patent US8865659B2",
  "about": "“Compositions for prevention or treatment of Hepatitis C virus containing ginsenoside Rg3 as an active ingredient” (priority 2012, dated 2014)",
  "system": "cleaved PARP",
  "assay": "Western blotting against cleaved PARP (apoptosis) in JFH-1 infected Huh 7.5.1 cells",
  "format": "cell-based",
  "description": "The experiment was carried out as follow. First, 200,000 Huh 7.5.1 cells were placed in a 60×15 mm cell culture dish. Next day, Japanese Fulminant Hepatitis-1 virus (JFH-1) stock vial which was stored in −70° C. refrigerator was taken out and thawed out in a container filled with ice-water. The culture medium was collected from the cultured 60×15 mm cell culture dish, washed with 1×PBS and collected, again. 1.5 ml of JFH-1 virus solution per 60×15 mm cell culture dish each was added. The dish was shaken to cover the surface sufficiently. The dish was laid in a 5% CO2 incubator at 37° C. for 6 hours and after that, the supernatant was draw out. 1×PBS was spread on the cell surface as slow as possible and after one time washing, cells were collected. 5 ml of cell culture media was added to control and JFH-1 treatments groups. At the last step of virus-infection, 5 ml CM and each […] of ginsenosides which was set to 50 mM concentration were added to the cell culture media. After that, the cell culture media was laid in a 5% CO2 incubator at 37° C. After 72 hours, the following steps were carried out.\nAs described in the above Example 3, the Huh 7.5.1 cells were treated with each 100 μM of seven ginsenosides (Ro, Re, Rg1, Rg2, Rg3, Rh1, Rh2). After 72 hours, a western blotting analysis was carried out for analyzing virus suppression effect against HCV CORE and cleaved PARP. […]",
  "data": [
    {"molecule": "CC(C)=CCC[C@](C)(O)[C@H]1CC[C@]2(C)[C@@H]1[C@H](O)C[C@@H]1[C@@]3(C)CC[C@H](O[C@@H]4O[C@H](CO)[C@@H](O)[C@H](O)[C@H]4O[C@@H]4O[C@H](CO)[C@@H](O)[C@H](O)[C@H]4O)C(C)(C)[C@@H]3CC[C@]12C", "note": "[ginsenoside Rg3]", "values": [
      {"measurement": "apoptosis of the cells (cleaved PARP), dose dependence", "setting": "10 μM, 25 μM, 50 μM and 100 μM", "result": "dose-dependent manner"},
      {"measurement": "cleaved PARP", "setting": "100 μM, 72 hours", "result": "decreased"}
    ]}
  ]
}
